# Values of other authors, collected in patent publication US20260258363A1, “THERAPY” (PLASTICELL LTD, priority 2023, published 2026).
# System: bone marrow derived CD34+ cells
# Conditions: pre-treatment of cells in vitro
smiles,measurement,value
NCCCNCCS [WR1065],enhancement of formation of CFU-GEMM and BFU-E colonies,≤ 38 fold
